Literature values as cited in US10226421B2, “Pharmaceutical composition containing budesonide and formoterol” (Zambon S.P.A., priority 2013, dated 2019).

Details: phospholipids in the presence of a humidity

glass-rubber transition temperatures (Tg)	SMILES
63 °C	CCCCCCCCCCCCCCCC(=O)OCC(COP(=O)(O)OCCN)OC(=O)CCCCCCCCCCCCCCC (stereo not drawn) [DPPE, dipalmitoyl-phosphatidylethanolamine]
55 °C	CCCCCCCCCCCCCCCCCC(=O)OC[C@H](COP(=O)([O-])OCC[N+](C)(C)C)OC(=O)CCCCCCCCCCCCCCCCC [DSPC, distearoyl-phosphatidylcholine]
41 °C	CCCCCCCCCCCCCCCC(=O)OC[C@H](COP(=O)([O-])OCC[N+](C)(C)C)OC(=O)CCCCCCCCCCCCCCC [DPPC, dipalmitoyl-phosphatidylcholine]
